The record followed here is patent US20090143285A1, “TARGET PROTEIN AND TARGET GENE FOR DRUG DISCOVERY AND SCREENING METHOD” (REVERSE PROTEOMICS RESEARCH INSTITUTE CO., LTD., priority 2005, published 2009).

SMILES strings stand for the structures. Numbering of substitutions follows the chain as printed. “Also recorded” adds a separate entry of the source. Where two headings read alike, the source gives them in different places.

In assay [1] the target is T1, FLJ41991-derived protein (Homo sapiens, UniProt P57764, E293G).
T1 construct: His-tag (N); made in house; host or cells: Escherichia coli BL21star(DE3)pLysS (pDEST17)
T1 sequence (P57764 265-484 E293G): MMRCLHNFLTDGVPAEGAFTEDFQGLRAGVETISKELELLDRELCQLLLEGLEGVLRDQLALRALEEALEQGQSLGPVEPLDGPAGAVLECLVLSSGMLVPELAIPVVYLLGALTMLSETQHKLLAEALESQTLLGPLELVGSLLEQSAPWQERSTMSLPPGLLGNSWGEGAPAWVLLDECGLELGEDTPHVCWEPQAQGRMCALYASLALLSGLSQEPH
In words: SEC/MS interaction analysis, FLJ41991-derived protein (GSDMDC1). Type of assay: binding. As to conditions: for interaction judged from spectrum intensity of the compound in the SEC spin column filtrate (protein fraction eluted from SEC): spin column method, doses of both compound and protein varied. From the text:
(§1) To analyze the interactions between commonly used drugs and proteins expressed from human full-length cDNA clones while keeping both the proteins and the compounds in non-modified, non-immobilized state, size exclusion chromatography (SEC) and mass analysis were used in combination. The specific procedures are shown below.
(§2) The compound-protein mixture prepared in step 1 was subjected to chromatography using an SEC column, the compound and the protein were separated by SEC, and the compound that interacted with the bound compound or protein contained in the protein fraction was analyzed using a mass analyzer.
(§3) Protein concentrations were measured using BCA Protein Assay (PIERCE), in consideration of the purity calculated by SDS-PAGE.
(§4) Mass analysis was performed using LCQ DECA XP (Thermoelectron) or Q-TOF micro (Micromass), equipped with an ESI probe. The LC pump used was Agilent 1100 (Yokogawa Analytical Systems), and the autosampler used was HTC-PAL (CTC Analytics) equipped with a cooling stacker. The SEC column used was a micro-LC column or a 384-well spin column. […]
(§5) In the 384-well spin column method, Unifilter 100 (Whatman), packed with 10 μL (dry volume) of Bio-Gel P6 (BIO-RAD) and swollen with milliQ water, was used as the SEC column. […] The SEC spin column was mounted on an acetonitrile-aliquoted 384-well U-bottom plate and centrifuged; the SEC spin column filtrate, which is a protein fraction, was recovered in 50% acetonitrile. The protein precipitate produced by the acetonitrile was removed via centrifugation and filtration for deproteinization; the resulting filtrate was concentrated by centrifugal concentration and re-dissolved in 10 μL of 50% methanol to obtain a mass analysis sample. The mobile phase supplied to the mass analyzer was 0.1% formic acid/50% methanol solution in the positive ion mode, and 0.1% ammonia/50% methanol solution in the negative ion mode; these mobile phases were used at a flow rate of 40 μL/min. 2-μL of mass analysis samples were injected using an autosampler at 2-minute intervals; the mass spectral intensity of the compound was measured to retrieve the spectral intensity of the pharmaceutical compound contained in the SEC spin column filtrate (protein fraction eluted from SEC).

Assay [2] has as its target T2, FLJ38897-derived protein (Homo sapiens, UniProt P57764).
T2 construct: His-tag (N); made in house; host or cells: Escherichia coli BL21star(DE3)pLysS
T2 sequence (P57764 265-484): T1 sequence (P57764 265-484 E293G) with G29E
The experiment in a line: SEC/MS interaction analysis, FLJ38897-derived protein (GSDMDC1). It counts as binding. The following applies: spin column method; mixture with protein vs buffer solution alone; data not shown.
Source text: as §1, §2, §3, §4, §5

Assay [3] deals with FLJXXXXX-derived proteins. In words: SEC/MS spin column interaction analysis of FLJXXXXX-derived proteins and various compounds (Tables 30-1 to 30-4). Type of assay: binding, human.
[4] abbreviates: compound 12.5 μM, protein 10 μM.
Where [5] appears, read: compound 12.5 μM, protein 25 μM.
Where [6] appears, read: compound 62.5 μM, protein 10 μM.
Setting [7] is: compound 62.5 μM, protein 25 μM.
Setting [8] is: SEC spin column filtrate, spectral intensity increased with doses of compound and protein.

As for `OCCN1CCN(CCCN2c3ccccc3Sc3ccc(C(F)(F)F)cc32)CC1` [fluphenazine], the “spectrum intensity of the compound in the SEC spin column filtrate” value in assay [1] (compound 12.5 μM, protein 0 μM) amounted to 87861; in assay [1] (compound 12.5 μM, protein 5 μM), 162795; in assay [1] (setting [4]) it was 434899; in assay [1] (setting [5]), 1101486; in assay [1] (compound 25 μM, protein 0 μM), 193639; in assay [1] (compound 25 μM, protein 5 μM), 276524. In addition, the “spectrum intensity of the compound in the SEC spin column filtrate” value stood at 843648 in assay [1] (compound 25 μM, protein 10 μM); 1778376 in assay [1] (compound 25 μM, protein 25 μM); 200313 in assay [1] (compound 62.5 μM, protein 0 μM); 1055670 in assay [1] (compound 62.5 μM, protein 5 μM); 3173659 in assay [1] (setting [6]); 6405132 in assay [1] (setting [7]). Besides, the “interaction judged from spectrum intensity of the compound in the SEC spin column filtrate (protein fraction eluted from SEC)” value in assay [1] is recorded as “concentration-dependent interaction”. Further, the “interaction judged from mass spectrum peak intensity of the compound in the spin column filtrate” value (“interaction judged … in the spin column filtrate” below) in assay [2] is listed as “there was an interaction”. In assay [3] (setting [8]), the “FLJ No of the derived protein with which the compound was judged to exhibit a concentration-dependent interaction” value (from here on “FLJ No of the derived protein”) was “FLJ38897; also recorded: FLJ41991”.
Turning to `CN(C)C(=O)C(CCN1CCC(O)(c2ccc(Cl)cc2)CC1)(c1ccccc1)c1ccccc1` [loperamide], the “spectrum intensity of the compound in the SEC spin column filtrate” value was 75412 in assay [1] (compound 12.5 μM, protein 0 μM); 200285 in assay [1] (compound 12.5 μM, protein 5 μM); 950587 in assay [1] (setting [4]); 1688197 in assay [1] (setting [5]); 263744 in assay [1] (compound 25 μM, protein 0 μM); 863800 in assay [1] (compound 25 μM, protein 5 μM). The “spectrum intensity of the compound in the SEC spin column filtrate” value in assay [1] (compound 25 μM, protein 10 μM) came to 1856141; in assay [1] (compound 25 μM, protein 25 μM), 4462655; in assay [1] (compound 62.5 μM, protein 0 μM), 1579322; in assay [1] (compound 62.5 μM, protein 5 μM), 3520629; in assay [1] (setting [6]), 6073080; in assay [1] (setting [7]), 9496680. Further, the “interaction judged from spectrum intensity of the compound in the SEC spin column filtrate (protein fraction eluted from SEC)” value in assay [1] was “concentration-dependent interaction”. Further, the “interaction judged … in the spin column filtrate” value in assay [2] is reported as “there was an interaction”. For the same compound, in assay [3], the “FLJ No of the derived protein” value is listed as “FLJ41991; also recorded: FLJ38897”.
With `OC(c1cc(C(F)(F)F)nc2c(C(F)(F)F)cccc12)C1CCCCN1` (centres unmarked) [mefloquine], the “spectrum intensity of the compound in the SEC spin column filtrate” value came to 16334 in assay [1] (compound 12.5 μM, protein 0 μM); 46239 in assay [1] (compound 12.5 μM, protein 5 μM); 101775 in assay [1] (setting [4]); 453818 in assay [1] (setting [5]); 27931 in assay [1] (compound 25 μM, protein 0 μM); 100287 in assay [1] (compound 25 μM, protein 5 μM). Moreover, the “spectrum intensity of the compound in the SEC spin column filtrate” value amounted to 273106 in assay [1] (compound 25 μM, protein 10 μM); 1788847 in assay [1] (compound 25 μM, protein 25 μM); 97153 in assay [1] (compound 62.5 μM, protein 0 μM); 528117 in assay [1] (compound 62.5 μM, protein 5 μM); 2017157 in assay [1] (setting [6]); 4385022 in assay [1] (setting [7]). Besides, the “interaction judged from spectrum intensity of the compound in the SEC spin column filtrate (protein fraction eluted from SEC)” value in assay [1] is on record as “concentration-dependent interaction”. Moreover, the “interaction judged … in the spin column filtrate” value in assay [2] is on record as “there was an interaction”. In addition, the “FLJ No of the derived protein” value in assay [3] (setting [8]) is on record as “FLJ37909; also recorded: FLJ38897; also recorded: FLJ41991”.
Regarding `OCCN1CCN(CCCN2c3ccccc3Sc3ccc(Cl)cc32)CC1` [perphenazine], the “spectrum intensity of the compound in the SEC spin column filtrate” value in assay [1] (compound 12.5 μM, protein 0 μM) was found to be 23424; in assay [1] (compound 12.5 μM, protein 5 μM), 43607; in assay [1] (setting [4]), 83672; in assay [1] (setting [5]), 314285; in assay [1] (compound 25 μM, protein 0 μM), 38186; in assay [1] (compound 25 μM, protein 5 μM), 71806. Further, the “spectrum intensity of the compound in the SEC spin column filtrate” value came out at 229107 in assay [1] (compound 25 μM, protein 10 μM); 799962 in assay [1] (compound 25 μM, protein 25 μM); 35061 in assay [1] (compound 62.5 μM, protein 0 μM); 208220 in assay [1] (compound 62.5 μM, protein 5 μM); 695158 in assay [1] (setting [6]); 2872912 in assay [1] (setting [7]). Also, the “interaction judged from spectrum intensity of the compound in the SEC spin column filtrate (protein fraction eluted from SEC)” value in assay [1] is given as “concentration-dependent interaction”. The “interaction judged … in the spin column filtrate” value in assay [2] is “there was an interaction”. Also, the “FLJ No of the derived protein” value in assay [3] (setting [8]) was “FLJ38897; also recorded: FLJ41991”.
For `O=C(c1ccc(OCCN2CCCCC2)cc1)c1c(-c2ccc(O)cc2)sc2cc(O)ccc12` [raloxifene], the “spectrum intensity of the compound in the SEC spin column filtrate” value was determined as 19251 in assay [1] (compound 12.5 μM, protein 0 μM); 32265 in assay [1] (compound 12.5 μM, protein 5 μM); 67187 in assay [1] (setting [4]); 37961 in assay [1] (compound 25 μM, protein 0 μM); 52442 in assay [1] (compound 25 μM, protein 5 μM); 119306 in assay [1] (compound 25 μM, protein 10 μM). Moreover, the “spectrum intensity of the compound in the SEC spin column filtrate” value in assay [1] (compound 25 μM, protein 25 μM) is listed as 1312562; in assay [1] (compound 62.5 μM, protein 0 μM), 58164; in assay [1] (compound 62.5 μM, protein 5 μM), 153267; in assay [1] (setting [6]), 1091123; in assay [1] (setting [7]) it was 3195671. Moreover, the “interaction judged from spectrum intensity of the compound in the SEC spin column filtrate (protein fraction eluted from SEC)” value in assay [1] is recorded as “concentration-dependent interaction”. The “interaction judged … in the spin column filtrate” value in assay [2] is on record as “there was an interaction”. Further, the “FLJ No of the derived protein” value in assay [3] (setting [8]) is on record as “FLJ37909; also recorded: FLJ38897; also recorded: FLJ41991”.
